Experiments:
[1] = system: SWISS CDl mice; experiment: Electroshock test (anticonvulsant activity); format: in vivo; conditions: i.p., % of animals not extending the hind paws; for % protection against Electro shock 30 min.: 1/10 of the LD50, 30 min before electroshock; for % protection against Electro shock 4 h: 1/10 of the LD50, 4 hours before electroshock
Experimental: (§1) The anticonvulsant activity is measured by the electroshock and pentetrazole tests according to the procedure of A. SWINYARD (ADD PROGRAM OF NINCDS BY H. J. KUPFERBERG. E. A. SWINYARD AND G. D. GLADDING in Advances in Epileptology/XIIth Epilepsy International Symposium edited by M. DAM, L. GRAM and J. K. PENRY-RAVEN press N.Y. 1981). The compounds are always administered (at 1/10 of the LD50) by IP injections into SWISS CDl mice (Charles River) of 20-25 g mean weight. All of the compounds are dissolved in a 0.9% solution of sodium chloride or suspended in a 1% solution of carboxymethyl cellulose or tween.
Electroshock test. Groups of 10 mice (1 control group and one treated group) are used for each compound. The treated group receives the compound to be tested by the intraperitoneal route either 30 mn before the electroshock or 4 hours before the electroshock. This latter is applied with the aid of corneal electrodes (50 milliamperes for 0.2 second). Protection is measured by the percentage of animals not extending the hind paws.

[2] = system: SWISS CDl mice; experiment: Seizures induced by pentetrazole (anticonvulsant activity); format: in vivo; conditions: i.p., % protected against clonic seizures; for % protection against Pentetrazole 30 mn.: 1/10 of the LD50, 30 mn before pentetrazole 70 mg/kg s.c.; for % protection against Pentetrazole 4 h: 1/10 of the LD50, 4 hours before pentetrazole 70 mg/kg s.c.
Experimental: as §1
Seizures induced by pentetrazole. 70 mg/kg of pentetrazole are injected by the subcutaneous route into groups of 10 mice (1 control group and one treated group) in a volume of 0.2 ml/20 g of body weight. The compounds to be tested are administered either 30 mn before pentetrazole or 4 hours before pentetrazole by the intraperitoneal route. The animals are observed for 30 mn. The number of clonic seizures lasting 5 seconds or more and the percentage of the animals protected against clonic seizures are recorded.

[3] = Determination of the lethal dose 50 (MILLER and TAINTER); conditions: in vivo, ip
Experimental: The toxicity is measured by the technique of MILLER and TAINTER by the intraperitoneal route.

[4] = system: mice; experiment: Cerebral protective activity: hypoxia induced by the altitude; format: in vivo; conditions: i.p., 30 min before closed chamber at 210 mm Hg
Experimental: Five mice (20 to 25 g) receive an administration of the compound or the liquid vehicle by the intraperitoneal route 30 min. before being placed in a closed chamber in which the atmospheric pressure is reduced to 210 mm Hg. The time of survival (in seconds) is measured from the induction of hypoxia to the cessation of respiratory movements.

Row | SMILES | % protection against Electro shock 30 min. [1] [%] | % protection against Electro shock 4 h [1] [%] | % protection against Pentetrazole 30 mn. [2] [%] | % protection against Pentetrazole 4 h [2] [%] | LD50 ([3]; intraperitoneal route) [mg/kg] | hypoxia induced by the altitude; increase time of survival as % of controls [4] | LD50 [3] [mg/kg]
1 | CC(=O)n1nc(C(=O)Nc2c(C)cccc2Cl)cc1C [Compound 2, 3-(2-chloro 6-methylphenylcarbamoyl) 1-acetyl 5-methyl pyrazole] | 100 | 0 | 80 | 0 | 350 |  | 
2 | Cc1cccc(C)c1C(=O)Nc1cc(C)n(C)n1 [Compound 3, N-(1,5-dimethyl-3-pyrazolyl)2,6-dimethylbenzamide] | 100 | 0 | 50 | 0 | 1000 |  | 
3 | Cc1cccc(C)c1NC(=O)c1cc(C)n(C)n1 [Compound 4, 3-(2,6-dimethylphenylcarbamoyl) 1,5-dimethyl pyrazole] | 100 | 0 | 30 | 10 | 150 | 60 % of controls | 
4 | Cc1cccc(Cl)c1NC(=O)c1cc(C)n(C)n1 [Compound 5, 3-(2-chloro 6-methylphenylcarbamoyl) 1,5-dimethyl pyrazole] | 100 | 10 | 40 | 10 | 500 |  | 
5 | Cc1cccc(C)c1N(C)C(=O)c1cc(C)n(C)n1 [Compound 7] | 70 | 0 | 30 | 0 |  |  | 400
6 | COc1cc(C(=O)Nc2c(C)cccc2C)nn1C [Compound 15, 3-(2,6-dimethylphenylcarbamoyl) 1-methyl 5-methoxy pyrazole] | 10 | 0 | 0 | 10 | 400 | 21 % of controls | 
7 | Cc1cc(NC(=O)c2c(C)cccc2C)no1 [Compound 17] | 100 | 0 | 30 | 20 |  |  | 2000
8 | Cc1cccc(C)c1NC(=O)c1cc(COC(=O)c2ccccc2)on1 [Compound 29] | 70 | 0 | 10 | 10 |  |  | 2000
9 | Cc1cccc(C)c1NC(=O)c1cc(CF)on1 [Compound 31, 3-(2,6-dimethylphenylcarbamoyl) 5-fluoromethyl isoxazole] | 100 | 0 | 0 | 0 | 375 |  | 
10 | CC(=O)n1nc(C(=O)Nc2c(C)cccc2C)cc1C [Compound 41] | 100 | 0 | 50 | 0 |  |  | 350

Source: patent US5258397A, “3-Isoxazoyl derivatives endowed with anticonvulsant activity, procedure for their preparation and their pharmaceutical compositions” (Novapharme, priority 1988, dated 1993)
